Laboratory results from patent publication US4532255A, “Amidine compounds and anticomplement agent comprising same” (Torii & Co., Ltd., priority 1980, dated 1985).
pIC50: −log10 of the molar value.

What was measured:
[1] = tested on: complement mediated hemolysis; test: Inhibition of complement mediated hemolysis; type: cell-based
Protocol: The principle of this method is based on the fact that hemolysis is caused by the activation of complement, when the latter is added to a complex (immune complex) of erythrocytes and the antibody thereof. The degree of hemolysis varies in proportion to the amount of complement added. Therefore, when a known amount of complement admixed with a C1 esterase inhibitor is used, the hemolysis must be suppressed in proportion to the inhibitory activity.

[2] = biological target: T1, C1s (Homo sapiens, UniProt P09871); test: biochemical; conditions: ATEE hydrolysis; read-out: Anti-C1 activity, C1s ID50
T1 sequence (P09871 438-688 limits assumed): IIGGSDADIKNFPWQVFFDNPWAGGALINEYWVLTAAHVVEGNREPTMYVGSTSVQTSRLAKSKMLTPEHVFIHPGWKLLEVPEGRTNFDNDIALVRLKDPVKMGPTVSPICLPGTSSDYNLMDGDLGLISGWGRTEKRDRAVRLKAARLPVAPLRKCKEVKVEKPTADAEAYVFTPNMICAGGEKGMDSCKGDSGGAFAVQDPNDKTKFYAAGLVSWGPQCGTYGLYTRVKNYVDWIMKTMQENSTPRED
T1 sequence (P09871 16-437 partner limits assumed): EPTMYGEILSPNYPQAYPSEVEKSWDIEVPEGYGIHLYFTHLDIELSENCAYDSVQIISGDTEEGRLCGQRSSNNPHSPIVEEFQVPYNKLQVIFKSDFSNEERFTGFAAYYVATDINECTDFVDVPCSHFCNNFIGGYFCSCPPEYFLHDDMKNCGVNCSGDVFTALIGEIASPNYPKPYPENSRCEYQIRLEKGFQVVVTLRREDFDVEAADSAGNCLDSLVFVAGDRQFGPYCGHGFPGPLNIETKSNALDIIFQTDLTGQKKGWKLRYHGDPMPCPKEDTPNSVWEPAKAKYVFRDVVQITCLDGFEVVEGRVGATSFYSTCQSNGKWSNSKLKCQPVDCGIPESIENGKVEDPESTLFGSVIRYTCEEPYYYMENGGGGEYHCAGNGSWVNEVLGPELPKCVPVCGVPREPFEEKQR
Protocol: The anti-Cl esterase (Clr, Cls) activity was determined according to the method of Okamura et al. [K. Okamura, M. Muramatsu and S. Fujii, Biochem. Biophys. […] The figures in Table 2 have the following meanings:
Cls: Molar concentration of the test compound which inhibits 50% of the ability of Cls to hydrolyse ATEE (acetyltyrosin ethyl ester).

[3] = tested on: Kallikrein; test: Anti-kallikrein activity (hydrolysis of TAME); type: biochemical; conditions: at 1×10^-5 M
[4] = biological target: T2, C1r (Homo sapiens, UniProt P00736); test: Anti-C1 esterase (C1r) activity (hydrolysis of AAME); type: biochemical; conditions: AAME hydrolysis; read-out: Anti-C1 activity, C1r ID50
T2 sequence (P00736 464-705 limits assumed): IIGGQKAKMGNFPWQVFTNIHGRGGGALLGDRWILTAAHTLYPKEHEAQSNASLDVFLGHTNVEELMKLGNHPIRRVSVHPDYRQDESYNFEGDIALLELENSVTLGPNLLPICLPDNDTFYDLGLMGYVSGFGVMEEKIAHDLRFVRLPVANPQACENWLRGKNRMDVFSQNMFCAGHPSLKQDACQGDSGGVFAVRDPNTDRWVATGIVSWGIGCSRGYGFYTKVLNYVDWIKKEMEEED
T2 sequence (P00736 18-463 partner limits assumed): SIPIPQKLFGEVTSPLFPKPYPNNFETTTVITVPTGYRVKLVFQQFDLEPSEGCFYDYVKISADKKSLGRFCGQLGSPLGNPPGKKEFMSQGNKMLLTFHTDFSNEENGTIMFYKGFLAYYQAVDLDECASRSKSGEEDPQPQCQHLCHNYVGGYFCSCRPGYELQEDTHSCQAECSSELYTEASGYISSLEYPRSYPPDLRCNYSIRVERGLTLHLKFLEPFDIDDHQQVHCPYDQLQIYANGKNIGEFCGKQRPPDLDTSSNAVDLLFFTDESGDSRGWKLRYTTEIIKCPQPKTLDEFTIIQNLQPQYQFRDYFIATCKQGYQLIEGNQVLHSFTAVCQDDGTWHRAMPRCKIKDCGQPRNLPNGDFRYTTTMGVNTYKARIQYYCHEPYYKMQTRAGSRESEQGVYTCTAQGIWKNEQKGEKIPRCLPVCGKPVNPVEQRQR
Protocol: The anti-Cl esterase ([…]) activity was determined according to the method of Okamura et al. [K. Okamura, M. Muramatsu and S. Fujii, Biochem. Biophys.

[5] = biological target: Plasmin (Homo sapiens, UniProt P00747); test: Anti-plasmin activity (hydrolysis of TAME); type: biochemical; conditions: for pIC50: molar concentration inhibiting 50% of TAME hydrolysis, read-out: Plasmin ID50; for inhibition at 10 µM: at 1×10^-5 M, read-out: Plasmin percentage inhibition
Protocol: (§1) The anti-trypsin, anti-plasmin, anti-kallikrein and anti-thrombin activities were determined according to the method of Muramatsu et al. [M. Muramatsu, T. Onishi, S. Makino, Y. Hayashi and S. Fujii, J. of Biochem., 58, 214 (1965)]. […] The compound No. corresponds to the compound number shown in Examples.

[6] = biological target: Thrombin (Homo sapiens, UniProt P00734); test: biochemical; conditions: for pIC50: molar concentration inhibiting 50% of TAME hydrolysis, read-out: Thrombin ID50; for inhibition at 10 µM: at 1×10^-5 M, read-out: Thrombin percentage inhibition
Protocol: The anti-trypsin, anti-plasmin, anti-kallikrein and anti-thrombin activities were determined according to the method of Muramatsu et al. [M. Muramatsu, T. Onishi, S. Makino, Y. Hayashi and S. Fujii, J. of Biochem., 58, 214 (1965)]. The data summarized in Table 1 are expressed in terms of molar concentration (ID50) of the test compound which inhibits 50% of the activity of each enzyme to hydrolyze TAME (tosylalginine methyl ester). The compound No. corresponds to the compound number shown in Examples.

[7] = biological target: T3, Trypsin (Bos taurus, UniProt P00760); test: Anti-trypsin activity (hydrolysis of TAME); type: biochemical; conditions: molar concentration inhibiting 50% of TAME hydrolysis; read-out: Trypsin ID50
T3 sequence (P00760 24-246): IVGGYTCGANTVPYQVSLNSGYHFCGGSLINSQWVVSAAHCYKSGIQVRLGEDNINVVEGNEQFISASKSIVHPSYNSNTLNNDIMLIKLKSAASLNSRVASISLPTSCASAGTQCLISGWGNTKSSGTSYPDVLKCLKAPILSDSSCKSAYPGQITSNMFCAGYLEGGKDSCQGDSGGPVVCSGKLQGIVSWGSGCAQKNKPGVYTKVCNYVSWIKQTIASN
Protocol: as §1

Chain of Plasmin (P00747 581-810 limits assumed, species assumed): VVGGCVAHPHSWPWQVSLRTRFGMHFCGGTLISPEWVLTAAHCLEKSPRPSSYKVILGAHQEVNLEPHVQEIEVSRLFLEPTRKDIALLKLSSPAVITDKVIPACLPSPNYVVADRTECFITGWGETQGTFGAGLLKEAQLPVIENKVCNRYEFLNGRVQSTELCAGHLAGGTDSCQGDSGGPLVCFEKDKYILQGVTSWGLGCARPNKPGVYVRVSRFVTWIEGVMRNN
Chain of Plasmin (P00747 97-580 partner limits assumed, species assumed): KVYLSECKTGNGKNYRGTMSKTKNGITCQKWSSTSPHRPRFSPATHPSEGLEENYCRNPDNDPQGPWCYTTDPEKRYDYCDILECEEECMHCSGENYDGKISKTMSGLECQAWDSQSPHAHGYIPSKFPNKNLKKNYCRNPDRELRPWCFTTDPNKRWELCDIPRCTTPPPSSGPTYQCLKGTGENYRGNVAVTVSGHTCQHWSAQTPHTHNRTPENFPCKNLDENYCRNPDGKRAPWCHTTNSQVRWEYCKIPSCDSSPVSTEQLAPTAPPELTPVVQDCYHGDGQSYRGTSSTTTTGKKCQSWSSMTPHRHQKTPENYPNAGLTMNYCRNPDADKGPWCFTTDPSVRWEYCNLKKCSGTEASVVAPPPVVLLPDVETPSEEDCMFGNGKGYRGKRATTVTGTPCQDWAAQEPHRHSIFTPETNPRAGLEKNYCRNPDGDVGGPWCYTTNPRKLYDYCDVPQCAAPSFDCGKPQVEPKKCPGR

| Compound | Inhibition of complement mediated hemolysis (%) ([1]; 1 × 10^-4) | Inhibition of complement mediated hemolysis (%) ([1]; 1 × 10^-5) | Inhibition of complement mediated hemolysis (%) ([1]; 1 × 10^-6) | Inhibition of complement mediated hemolysis (%) ([1]; 1 × 10^-7) | pIC50 [2] | Kallikrein percentage inhibition [3] [%] | pIC50 [4] | pIC50 [5] | pIC50 [6] | pIC50 [7] | inhibition at 10 µM [5] [%] | inhibition at 10 µM [6] [%] |
| --- | --- | --- | --- | --- | --- | --- | --- | --- | --- | --- | --- | --- |
| Cc1cccc(C(=O)Oc2ccc3cc(C(=N)N)ccc3c2)c1 [Compound 3, 6-amidino-2-naphthyl 3-methylbenzoate] | 97 | 60 | 8 | 11 | 5.70 | 38 | 6.00 | 5.40 | 5.40 | 5.70 | – | – |
| N=C(N)c1ccc2cc(OC(=O)c3ccc(O)cc3)ccc2c1 [Compound 11, 6-amidino-2-naphthyl 4-hydroxybenzoate] | 96 | 56 | 6 | 13 | 6.70 | 21 | 7.00 | – | 5.15 | 6.52 | 36 | – |
| N=C(N)c1ccc2cc(OC(=O)c3ccc4c(c3)OCO4)ccc2c1 [Compound 10] | 97 | 75 | 9 | 2 | 6.70 | 31 | 6.70 | 4.30 | 5.40 | 6.70 | – | – |
| CN(C(=N)N)c1ccc(C(=O)Oc2ccc3cc(C(=N)N)ccc3c2)cc1 [Compound 28, 6-amidino-2-naphthyl 4-(Nα-methyl)guanidinobenzoate] | 100 | 99 | 60 | 6 | 6.52 | 20 | 5.52 | 6.22 | – | 6.22 | – | 17 |
| CC(=O)Oc1ccc(C(=O)Oc2ccc3cc(C(=N)N)ccc3c2)cc1 [Compound 13] | 94 | 42 | 5 | 4 | 6.52 | 24 | 6.52 | 5.70 | – | 6.40 | – | 39 |
| CC(=O)c1ccc(C(=O)Oc2ccc3cc(C(=N)N)ccc3c2)cc1 [Compound 32] | 93 | 97 | 67 | 22 | 5.52 | 26 | 5.70 | 5.52 | 5.40 | 5.70 | – | – |
| N=C(N)c1ccc2cc(OC(=O)c3ccc(N)cc3)ccc2c1 [Compound 20, 6-amidino-2-naphthyl 4-aminobenzoate] | 95 | 46 | 5 | 0 | 6.70 | 31 | 6.70 | – | < 5.00 | 7.22 | 27 | – |
| N=C(N)c1ccc2cc(OC(=O)c3cccc(C(F)(F)F)c3)ccc2c1 [Compound 33] | 75 | 39 | 7 | 22 | 5.52 | 13 | 6.00 | 5.52 | – | 5.10 | – | 40 |
| CSc1ccc(C(=O)Oc2ccc3cc(C(=N)N)ccc3c2)cc1 [Compound 30] | 14 | 90 | 40 | 6 | 6.52 | 41 | 6.30 | 5.70 | 5.40 | 5.70 | – | – |
| CCCCOc1ccc(C(=O)Oc2ccc3cc(C(=N)N)ccc3c2)cc1 [Compound 8] | 46 | 18 | 23 | – | 6.40 | 43 | 5.00 | – | – | 7.40 | 17 | 29 |
